Data from patent US20150099667A1, “METHODS FOR THE ACTIVATION OF SILENT GENES IN A MICROORGANISM” (priority 2012, published 2015).
Like-named read-outs stand apart in the source and are kept apart here.

Tests used:
Test in all cases: Biological screening of extracts of induced Actinobacteria, BacTiter-Glo assay
Assay type in all cases: cell-based
[1] = tested on: Pseudomonas aeruginosa ATCC 27853
[2] = tested on: Staphylococcus aureus ATCC 33592
[3] = tested on: Escherichia coli ATCC 35218; conditions: FIG. 4
[4] = tested on: Candida albicans ATCC 753; conditions: FIG. 10
[5] = chemical inducer 3.3 μg/ml in medium 5294

`[Cl-].[Cl-].[Co+2]` [CoCl2] was tested, and the “extracts showing >50% activity against Pseudomonas aeruginosa ATCC 27853, share by culture condition” value [1] was 3.8% and the “extracts that showed >50% activity against Staphylococcus aureus ATCC 33592, share by culture condition” value [2] was 3.6%.
`C[S+](C)[O-]` [DMSO] was tested, and the “extracts that showed >50% activity against Escherichia coli ATCC 35218, share by culture condition” value ([3]; chemical inducer 50 μl/ml in medium 5294) was 3.6% and the “extracts that showed >50% activity against Candida albicans ATCC 753, share by culture condition” value ([4]; chemical inducer 10 μl/ml in medium 5294) was 3.5%.
In the case of `O=[Se]([O-])O.[Na+]` [NaHSeO3], the “extracts that showed >50% activity against Escherichia coli ATCC 35218, share by culture condition” value [3, 5] is reported as 3.3%.
With `[Cl][Ni][Cl]` [NiCl2] the “extracts that showed >50% activity against Candida albicans ATCC 753, share by culture condition” value [4, 5] was 3.7%.
In the case of `[Cl-].[Cl-].[Sr+2]` [SrCl2], the “extracts showing >50% activity against Pseudomonas aeruginosa ATCC 27853, share by culture condition” value ([1]; chemical inducer 3.3 μg/ml in medium 5294, FIG. 6) is reported as 3.8%, the “extracts that showed >50% activity against Staphylococcus aureus ATCC 33592, share by culture condition” value ([2]; chemical inducer 3.3 μg/ml in medium 5294, FIG. 8) is reported as 3.5% and the “extracts that showed >50% activity against Candida albicans ATCC 753, share by culture condition” value ([4]; chemical inducer 1.6 μg/ml in medium 5294) is reported as 3.5%.
